Laboratory results as given in patent publication US10696642B2, “TEAD transcription factor autopalmitoylation inhibitors” (The General Hospital Corporation, priority 2015, dated 2020).

What was measured:
[1] = molecular target: TEAD4 (Homo sapiens, UniProt Q15561); experiment: Selectivity assay: TEAD4 palmitoylation (Example 20); format: biochemical; conditions: 0 to 10 μM (FIG. 27)
Description: (§1) Assays were performed to measure inhibition of TEAD4 palmitoylation compared with other palmitoyl acyltransferses, DHHC4, DHHC7 and DHHC11. The ability of compound (4) (“CP-1”) to inhibit palmitoylation was tested at concentrations in the range from 0 to 10 μM and the amount of palmitoylation was quantified.

[2] = system: DHHC4; experiment: Selectivity assay: palmitoyl acyltransferase DHHC4; format: biochemical; conditions: 0 to 10 μM (FIG. 27)
Description: as §1

[3] = system: HuH7 cells; experiment: Colony formation, HuH7; format: cell-based, human
Description: Assays were performed to measure inhibition of cancer cell proliferation in HuH7 cells by compounds (4), (22) and (36), which were each tested at 0-20 μM.

[4] = molecular target: T1, TEAD1-Vgll4 interaction (Homo sapiens, UniProt P28347); experiment: Co-immunoprecipitation of TEAD1 and Vgll4; format: cell-based; conditions: 0 to 10 μM (FIG. 26)
T1 construct: Myc; expressed in transfected cells; host or cells: HEK293A
T1 sequence (P28347 whole entry): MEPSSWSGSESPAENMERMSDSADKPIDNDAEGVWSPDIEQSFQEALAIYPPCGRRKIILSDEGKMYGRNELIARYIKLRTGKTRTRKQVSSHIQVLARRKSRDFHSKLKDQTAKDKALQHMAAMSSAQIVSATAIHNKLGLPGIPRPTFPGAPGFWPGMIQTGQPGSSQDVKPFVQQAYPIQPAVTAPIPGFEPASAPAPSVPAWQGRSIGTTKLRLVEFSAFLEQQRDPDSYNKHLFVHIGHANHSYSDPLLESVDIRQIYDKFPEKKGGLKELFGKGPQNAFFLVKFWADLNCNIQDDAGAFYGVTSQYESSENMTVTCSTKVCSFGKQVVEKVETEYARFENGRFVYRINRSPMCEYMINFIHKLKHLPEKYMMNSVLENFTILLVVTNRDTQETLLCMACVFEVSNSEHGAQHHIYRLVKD
Description: HEK293A cells were transfected with the indicated above. After 48 h, cells were lysed with lysis buffer (50 mM Tris-HCl, pH 7.3, 150 mM NaCl, 0.5 mM EDTA, 1% Triton X-100, PhosSTOP phosphatase inhibitor cocktail, cOmplete EDTA-free protease inhibitors cocktail). Flag-YAP or Myc-TEAD1 was immunoprecipitated with anti-FLAG M2 magnetic beads (Sigma Aldrich) or anti-c-Myc antibody (M4439, Sigma Aldrich), respectively, overnight with rotation at 4° C. TEAD1 was captured using Protein A/G magnetic resins (Life technologies). Protein-bound resins were washed three times with lysis buffer and processed with SDS-PAGE sample buffer. Blots were probed with anti-c-Myc (Sigma Aldrich), anti-HA (Sigma Aldrich), anti-FLAG M2 (F1804, Sigma Aldrich).
Co-immunoprecipitation assays of TEAD1 and Vgll4 were performed. The ability of compound (4) (“CP-1”) to inhibit to inhibit the TEAD1-Vgll4 interaction was tested at concentrations in the range from 0 to 10 μM.

[5] = system: DHHC7; experiment: Selectivity assay: palmitoyl acyltransferase DHHC7; format: biochemical; conditions: 0 to 10 μM (FIG. 27)
Description: as §1

[6] = system: JHH7 cells; experiment: Cell proliferation assay, JHH7; format: cell-based, human
Description: (§2) Human cancer cell lines (HuH7, JHH7), transformed MCF10A-YAP and mouse Lats1/2 DKO cells were cultured in 5% FBS containing media. The cells were seeded into 96-well plate with 500 cells/well. Various concentrations of compounds (10 nM to 20 μM) or DMSO control were added into the wells. The cells were further incubated for 2-5 days. The cell viability is determined by using CellTiter Glo (Promega). The data were then normalized with DMSO control and plotted in Prism software Human melanoma cell A375 and dermal fibroblasts are control cells and are tested similarly.
Assays were performed to measure inhibition of cancer cell proliferation by compound (4). The ability of compound (4) (“CP-1”) to inhibit proliferation cell proliferation in the human hepatocellular carcinoma cell lines HuH7 and JHH7, and in the breast cancer cell line MDA-MB-453. The compound was also tested against the SK-HEP-1 (adenocarcinoma), BT-474 (breast tumor), OCUB-M (breast carcinoma), HCC1143 (ductal carcinoma), EVSA-T (ductal carcinoma) and BT-20 (breast carcinoma) cell lines.

[7] = molecular target: T2, TEAD2 (Homo sapiens, UniProt Q15562); experiment: In vitro autopalmitoylation of purified TEAD2 with 1 μM alkyne palmitoyl-CoA; format: biochemical
T2 construct: The cDNA encoding human TEAD2 (residues 217-447, TEAD2^217-447) was cloned into a pET29 vector; made in house; host or cells: E. coli BL21(DE3)-T1R
T2 sequence (Q15562 217-447): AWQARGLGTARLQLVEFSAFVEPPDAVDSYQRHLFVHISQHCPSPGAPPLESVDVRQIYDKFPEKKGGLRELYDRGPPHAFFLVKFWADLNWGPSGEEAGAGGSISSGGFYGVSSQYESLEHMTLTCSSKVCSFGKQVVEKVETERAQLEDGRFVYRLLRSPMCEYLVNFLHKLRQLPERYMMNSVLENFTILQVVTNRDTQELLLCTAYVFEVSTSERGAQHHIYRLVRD
Description: Recombinant TEAD2 YBD was incubated with 1 μM of alkyne palmitoyl-CoA for 1 h in the presence of control (DMSO) or increasing 0.5-20 μM of compound 4. Palmitoylation of TEAD2 was detected by streptavidin blot.
Assays were performed to measure inhibition of TEAD2 and TEAD4 palmitoylation in vitro using purified TEAD2 and TEAD4 proteins and 1 μM of alkyne-palmitoyl-CoA. Compound (4) (“CP-1”) was tested at concentrations in the range from 0 to 10 μM and the amount of palmitoylation was quantified.

[8] = molecular target: T3, TEAD1 (Homo sapiens, UniProt P28347); experiment: TEAD1 palmitoylation in transfected cells; format: cell-based; conditions: 1 μM alkyne-palmitic acid probe, 0 to 10 μM compound (FIG. 24)
T3 construct: Myc; expressed in transfected cells
T3 sequence (P28347 whole entry): as the sequence (P28347 whole entry) above
Description: Assays were performed to measure inhibition of TEAD1 and TEAD4 palmitoylation in cells that were transfected with TEAD1 and TEAD4 proteins and labelled with 1 μM of alkyne-palmitic acid probe. The ability of compound (4) (“CP-1”) to inhibit palmitoylation was tested at concentrations in the range from 0 to 10 μM and the amount of palmitoylation was quantified.

[9] = system: MCF10A+YAP cells; experiment: Cell proliferation assay, YAP transformed MCF10A; format: cell-based; conditions: 500 cells/well, 10 μM (FIG. 20)
Description: In addition, the cells were treated with compound 4 (10 μM) or DMSO controls to evaluate cell viability.
as §2

Chain of TEAD4 (Q15561 whole entry, species assumed): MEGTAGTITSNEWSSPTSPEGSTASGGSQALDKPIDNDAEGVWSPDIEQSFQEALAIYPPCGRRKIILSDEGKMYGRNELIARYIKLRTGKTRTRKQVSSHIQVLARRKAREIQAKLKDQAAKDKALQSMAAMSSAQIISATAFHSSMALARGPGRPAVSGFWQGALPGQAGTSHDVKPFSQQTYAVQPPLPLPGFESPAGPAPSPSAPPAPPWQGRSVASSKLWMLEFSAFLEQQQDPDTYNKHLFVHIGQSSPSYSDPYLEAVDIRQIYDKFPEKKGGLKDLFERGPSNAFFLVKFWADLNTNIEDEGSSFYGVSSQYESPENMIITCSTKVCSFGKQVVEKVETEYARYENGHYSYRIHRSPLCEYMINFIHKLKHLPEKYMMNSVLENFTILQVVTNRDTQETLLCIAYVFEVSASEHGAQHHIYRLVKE

Compound: O=C(CSc1nnc[nH]1)Nc1ccc(C23CC4CC(CC(C4)C2)C3)cc1 [Compound 4]
- inhibition of TEAD4 palmitoylation [1]: dose-dependently inhibited
- inhibition of palmitoylation with DHHC4 [2]: did not inhibit
- inhibition of colony formation ([3]; HuH7 (FIG. 28 panel B)): inhibits
- inhibition of cancer cell proliferation / colony formation in HuH7 cells ([3]; tested at 0-20 μM (FIG. 29)): effective
- effect on the interaction of TEAD1 with Vgll4 [4]: did not affect
- inhibition of palmitoylation with DHHC7 [5]: did not inhibit
- inhibition of cell proliferation, dose dependency ([6]; JHH7 (FIG. 28 panel A)): dose-dependently inhibits
- inhibition of YAP-dependent cancer cell proliferation ([6]; JHH, 500 cells/well, 10 μM (FIG. 18)): inhibits
- inhibition of TEAD2 YBD autopalmitoylation in vitro ([7]; 1 μM alkyne palmitoyl-CoA, 1 h, 0.5-20 μM compound, streptavidin blot (FIG. 9)): dose-dependently inhibits
- inhibition of TEAD2 palmitoylation in vitro ([7]; purified TEAD2, 1 μM alkyne-palmitoyl-CoA, 0 to 10 μM compound (FIG. 23)): dose-dependently inhibited
- inhibition of TEAD1 palmitoylation in cells [8]: dose-dependently inhibited
- inhibition of YAP-dependent cancer cell proliferation [9]: inhibits
